Laboratory results published in patent US11109593B2, “Isoxazolin-5-one derivative and herbicide containing same as active ingredient” (HOKKO CHEMICAL INDUSTRY CO., LTD., priority 2017, dated 2021).

test system: Scirpus juncoides; test: Test Example 2: herbicidal effect test by treatment during growing period in paddy rice cultivation (seven days after seeding); type: in vivo; details: 120 g/10a active ingredient, assessed 14 days after treatment, dry weight vs untreated area
Procedure: (§1) This test was conducted in a double system per one agent solution concentration area, and the herbicidal rates (%) were determined by the following equation (Math. 1) on 14 days after the treatment with the agents. Herbicidal Rate (%)={1-(Average Dry Weight (g) of Plant of Treated Area)/(Average Dry Weight (g) of Plant of Untreated Area)}×100 [Math. 1]
(§2) Herbicidal Effect Test by Treatment During Growing Period in Paddy Rice Cultivation
(§3) Wagner pots with an area of 1/10000 ares were filled with a paddy soil, and after adding water, a compound fertilizer (N:P:K=17:17:17) was mixed, followed by soil puddling. Then, Echinochloa crus-galli, broad leaf weeds (Lindernia pyxidaria and Monochoria vaginalis) and Scirpus juncoides, 30 seeds each, were sown in a depth of 0 to 1 cm. Water was poured immediately after seeding, and the water depth was kept at about 3 cm. The subsequent management was conducted in a glass greenhouse. Emulsions prepared using the compounds in Table 4 below according to Formulation Example 5 were diluted with water seven days after seeding, and a certain amount of the water-diluted agent solutions were dropped. The converted amount of the applied active ingredient corresponded to 120 g per 10 ares. The test was conducted in a double system per one agent solution concentration area, and the herbicidal rates (%) were determined by the equation (Math. 1) on 14 days after the treatment with the agents. […] The compound numbers in Table 4 are the same as those in Table 1 and Table 2 above.

Structure (SMILES) | Herbicidal rate (%) Scirpus juncoides
C#CCn1oc(=O)c(Cc2ccccc2N(S(=O)(=O)C(F)(F)F)S(=O)(=O)C(F)(F)F)c1C [Compound 1-988] | 90%
COc1ccc(Cn2oc(=O)c(Cc3ccccc3NS(=O)(=O)C(F)(F)F)c2C)cc1 [Compound 1-195] | 80%
CCC(C)Cn1oc(=O)c(Cc2ccccc2N(C(=O)OCc2ccccc2)S(=O)(=O)C(F)(F)F)c1C (single isomer, unassigned) [1-788 (TLC top)] | 50%
Cc1c(Cc2ccccc2NS(=O)(=O)C(F)(F)F)c(=O)on1C(C)c1cccc(Cl)c1 (stereo not shown) [Compound 1-206] | 80%
CC(C)c1c(Cc2ccccc2N(S(=O)(=O)C(F)(F)F)S(=O)(=O)C(F)(F)F)c(=O)on1C(C)C [Compound 1-69] | 60%
Cc1c(Cc2ccccc2N(S(=O)(=O)C(F)(F)F)S(=O)(=O)C(F)(F)F)c(=O)on1Cc1cccc(C(F)(F)F)c1 [Compound 1-1020] | 40%
Cc1c(Cc2ccccc2NS(=O)(=O)C(F)(F)F)c(=O)on1C(C)c1ccsc1 (stereo not shown) [Compound 1-235] | 60%
CSCCCn1oc(=O)c(Cc2ccccc2NS(=O)(=O)C(F)(F)F)c1C [Compound 1-167] | 90%

test system: Echinochloa crus-galli; test: as above; type: in vivo; details: 120 g/10a active ingredient, assessed 14 days after treatment, dry weight vs untreated area
Procedure: as §1, §2, §3

Structure (SMILES) | Herbicidal rate (%) Echinochloa crus-galli
C#CCn1oc(=O)c(Cc2ccccc2N(S(=O)(=O)C(F)(F)F)S(=O)(=O)C(F)(F)F)c1C [Compound 1-988] | 90%
COc1ccc(Cn2oc(=O)c(Cc3ccccc3NS(=O)(=O)C(F)(F)F)c2C)cc1 [Compound 1-195] | 80%
CCC(C)Cn1oc(=O)c(Cc2ccccc2N(C(=O)OCc2ccccc2)S(=O)(=O)C(F)(F)F)c1C (single isomer, unassigned) [1-788 (TLC top)] | 40%
Cc1c(Cc2ccccc2NS(=O)(=O)C(F)(F)F)c(=O)on1C(C)c1cccc(Cl)c1 (stereo not shown) [Compound 1-206] | 60%
CC(C)c1c(Cc2ccccc2N(S(=O)(=O)C(F)(F)F)S(=O)(=O)C(F)(F)F)c(=O)on1C(C)C [Compound 1-69] | 60%
Cc1c(Cc2ccccc2N(S(=O)(=O)C(F)(F)F)S(=O)(=O)C(F)(F)F)c(=O)on1Cc1cccc(C(F)(F)F)c1 [Compound 1-1020] | 60%
Cc1c(Cc2ccccc2NS(=O)(=O)C(F)(F)F)c(=O)on1C(C)c1ccsc1 (stereo not shown) [Compound 1-235] | 50%
CSCCCn1oc(=O)c(Cc2ccccc2NS(=O)(=O)C(F)(F)F)c1C [Compound 1-167] | 90%

test system: broad leaf weeds (Lindernia pyxidaria and Monochoria vaginalis); test: as above; type: in vivo; details: Lindernia pyxidaria, 120 g/10a active ingredient, assessed 14 days after treatment, dry weight vs untreated area
Procedure: as §1, §2, §3

Structure (SMILES) | Herbicidal rate (%) Lindernia pyxidaria
C#CCn1oc(=O)c(Cc2ccccc2N(S(=O)(=O)C(F)(F)F)S(=O)(=O)C(F)(F)F)c1C [Compound 1-988] | 100%
COc1ccc(Cn2oc(=O)c(Cc3ccccc3NS(=O)(=O)C(F)(F)F)c2C)cc1 [Compound 1-195] | 40%
CCC(C)Cn1oc(=O)c(Cc2ccccc2N(C(=O)OCc2ccccc2)S(=O)(=O)C(F)(F)F)c1C (single isomer, unassigned) [1-788 (TLC top)] | 40%
Cc1c(Cc2ccccc2NS(=O)(=O)C(F)(F)F)c(=O)on1C(C)c1cccc(Cl)c1 (stereo not shown) [Compound 1-206] | 80%
CC(C)c1c(Cc2ccccc2N(S(=O)(=O)C(F)(F)F)S(=O)(=O)C(F)(F)F)c(=O)on1C(C)C [Compound 1-69] | 40%
Cc1c(Cc2ccccc2N(S(=O)(=O)C(F)(F)F)S(=O)(=O)C(F)(F)F)c(=O)on1Cc1cccc(C(F)(F)F)c1 [Compound 1-1020] | 40%
Cc1c(Cc2ccccc2NS(=O)(=O)C(F)(F)F)c(=O)on1C(C)c1ccsc1 (stereo not shown) [Compound 1-235] | 40%
CSCCCn1oc(=O)c(Cc2ccccc2NS(=O)(=O)C(F)(F)F)c1C [Compound 1-167] | 90%

same assay, conditions: Monochoria vaginalis, 120 g/10a active ingredient, assessed 14 days after treatment, dry weight vs untreated area

Structure (SMILES) | Herbicidal rate (%) Monochoria vaginalis
C#CCn1oc(=O)c(Cc2ccccc2N(S(=O)(=O)C(F)(F)F)S(=O)(=O)C(F)(F)F)c1C [Compound 1-988] | 100%
COc1ccc(Cn2oc(=O)c(Cc3ccccc3NS(=O)(=O)C(F)(F)F)c2C)cc1 [Compound 1-195] | 40%
CCC(C)Cn1oc(=O)c(Cc2ccccc2N(C(=O)OCc2ccccc2)S(=O)(=O)C(F)(F)F)c1C (single isomer, unassigned) [1-788 (TLC top)] | 40%
Cc1c(Cc2ccccc2NS(=O)(=O)C(F)(F)F)c(=O)on1C(C)c1cccc(Cl)c1 (stereo not shown) [Compound 1-206] | 90%
CC(C)c1c(Cc2ccccc2N(S(=O)(=O)C(F)(F)F)S(=O)(=O)C(F)(F)F)c(=O)on1C(C)C [Compound 1-69] | 60%
Cc1c(Cc2ccccc2N(S(=O)(=O)C(F)(F)F)S(=O)(=O)C(F)(F)F)c(=O)on1Cc1cccc(C(F)(F)F)c1 [Compound 1-1020] | 40%
Cc1c(Cc2ccccc2NS(=O)(=O)C(F)(F)F)c(=O)on1C(C)c1ccsc1 (stereo not shown) [Compound 1-235] | 60%
CSCCCn1oc(=O)c(Cc2ccccc2NS(=O)(=O)C(F)(F)F)c1C [Compound 1-167] | 90%

test system: Scirpus juncoides; test: Test Example 1: herbicidal effect test by treatment of rice paddy soil (immediately after seeding); type: in vivo; details: 120 g/10a active ingredient, dry weight vs untreated area, 14 days after treatment
Procedure: (§4) Herbicidal Effect Test by Treatment of Rice Paddy Soil
(§5) Wagner pots with an area of 1/10000 ares were filled with a paddy soil, and after adding water, a compound fertilizer (N:P:K=17:17:17) was added, followed by soil puddling. Then, Echinochloa crus-galli, broad leaf weeds (Lindernia pyxidaria and Monochoria vaginalis) and Scirpus juncoides, 30 seeds each, were sown in a depth of 0 to 1 cm. Water was poured immediately after seeding, and the water depth was kept at about 3 cm. The subsequent management was conducted in a glass greenhouse. Immediately after that, emulsions prepared using the compounds in Table 3 below according to Formulation Example 5 were diluted with water, and a certain amount of the water-diluted agent solutions were dropped. The converted amount of the applied active ingredient corresponded to 120 g per 10 ares.
as §1
(§6) The compound numbers in Table 3 are the same as those in Table 1 and Table 2 above.

Structure (SMILES) | Herbicidal rate (%) Scirpus juncoides
C#CCn1oc(=O)c(Cc2ccccc2N(S(=O)(=O)C(F)(F)F)S(=O)(=O)C(F)(F)F)c1C [Compound 1-988] | 90%
COc1ccc(Cn2oc(=O)c(Cc3ccccc3NS(=O)(=O)C(F)(F)F)c2C)cc1 [Compound 1-195] | 90%
CCC(C)Cn1oc(=O)c(Cc2ccccc2N(C(=O)OCc2ccccc2)S(=O)(=O)C(F)(F)F)c1C (single isomer, unassigned) [1-788 (TLC top)] | 80%
Cc1c(Cc2ccccc2NS(=O)(=O)C(F)(F)F)c(=O)on1C(C)c1cccc(Cl)c1 (stereo not shown) [Compound 1-206] | 90%
CC(C)c1c(Cc2ccccc2N(S(=O)(=O)C(F)(F)F)S(=O)(=O)C(F)(F)F)c(=O)on1C(C)C [Compound 1-69] | 90%
Cc1c(Cc2ccccc2N(S(=O)(=O)C(F)(F)F)S(=O)(=O)C(F)(F)F)c(=O)on1Cc1cccc(C(F)(F)F)c1 [Compound 1-1020] | 40%
Cc1c(Cc2ccccc2NS(=O)(=O)C(F)(F)F)c(=O)on1C(C)c1ccsc1 (stereo not shown) [Compound 1-235] | 80%
CSCCCn1oc(=O)c(Cc2ccccc2NS(=O)(=O)C(F)(F)F)c1C [Compound 1-167] | 90%

test system: Echinochloa crus-galli; test: as above; type: in vivo; details: 120 g/10a active ingredient, dry weight vs untreated area, 14 days after treatment
Procedure: as §4, §5, §1, §6

Structure (SMILES) | Herbicidal rate (%) Echinochloa crus-galli
C#CCn1oc(=O)c(Cc2ccccc2N(S(=O)(=O)C(F)(F)F)S(=O)(=O)C(F)(F)F)c1C [Compound 1-988] | 90%
COc1ccc(Cn2oc(=O)c(Cc3ccccc3NS(=O)(=O)C(F)(F)F)c2C)cc1 [Compound 1-195] | 90%
CCC(C)Cn1oc(=O)c(Cc2ccccc2N(C(=O)OCc2ccccc2)S(=O)(=O)C(F)(F)F)c1C (single isomer, unassigned) [1-788 (TLC top)] | 80%
Cc1c(Cc2ccccc2NS(=O)(=O)C(F)(F)F)c(=O)on1C(C)c1cccc(Cl)c1 (stereo not shown) [Compound 1-206] | 90%
CC(C)c1c(Cc2ccccc2N(S(=O)(=O)C(F)(F)F)S(=O)(=O)C(F)(F)F)c(=O)on1C(C)C [Compound 1-69] | 80%
Cc1c(Cc2ccccc2N(S(=O)(=O)C(F)(F)F)S(=O)(=O)C(F)(F)F)c(=O)on1Cc1cccc(C(F)(F)F)c1 [Compound 1-1020] | 50%
Cc1c(Cc2ccccc2NS(=O)(=O)C(F)(F)F)c(=O)on1C(C)c1ccsc1 (stereo not shown) [Compound 1-235] | 90%
CSCCCn1oc(=O)c(Cc2ccccc2NS(=O)(=O)C(F)(F)F)c1C [Compound 1-167] | 100%

test system: broad leaf weeds (Lindernia pyxidaria and Monochoria vaginalis); test: as above; type: in vivo; details: Lindernia pyxidaria, 120 g/10a active ingredient, dry weight vs untreated area, 14 days after treatment
Procedure: as §4, §5, §1, §6

Structure (SMILES) | Herbicidal rate (%) Lindernia pyxidaria
C#CCn1oc(=O)c(Cc2ccccc2N(S(=O)(=O)C(F)(F)F)S(=O)(=O)C(F)(F)F)c1C [Compound 1-988] | 100%
COc1ccc(Cn2oc(=O)c(Cc3ccccc3NS(=O)(=O)C(F)(F)F)c2C)cc1 [Compound 1-195] | 70%
CCC(C)Cn1oc(=O)c(Cc2ccccc2N(C(=O)OCc2ccccc2)S(=O)(=O)C(F)(F)F)c1C (single isomer, unassigned) [1-788 (TLC top)] | 60%
Cc1c(Cc2ccccc2NS(=O)(=O)C(F)(F)F)c(=O)on1C(C)c1cccc(Cl)c1 (stereo not shown) [Compound 1-206] | 100%
CC(C)c1c(Cc2ccccc2N(S(=O)(=O)C(F)(F)F)S(=O)(=O)C(F)(F)F)c(=O)on1C(C)C [Compound 1-69] | 70%
Cc1c(Cc2ccccc2N(S(=O)(=O)C(F)(F)F)S(=O)(=O)C(F)(F)F)c(=O)on1Cc1cccc(C(F)(F)F)c1 [Compound 1-1020] | 80%
Cc1c(Cc2ccccc2NS(=O)(=O)C(F)(F)F)c(=O)on1C(C)c1ccsc1 (stereo not shown) [Compound 1-235] | 60%
CSCCCn1oc(=O)c(Cc2ccccc2NS(=O)(=O)C(F)(F)F)c1C [Compound 1-167] | 90%

same assay, conditions: Monochoria vaginalis, 120 g/10a active ingredient, dry weight vs untreated area, 14 days after treatment

Structure (SMILES) | Herbicidal rate (%) Monochoria vaginalis
C#CCn1oc(=O)c(Cc2ccccc2N(S(=O)(=O)C(F)(F)F)S(=O)(=O)C(F)(F)F)c1C [Compound 1-988] | 100%
COc1ccc(Cn2oc(=O)c(Cc3ccccc3NS(=O)(=O)C(F)(F)F)c2C)cc1 [Compound 1-195] | 60%
CCC(C)Cn1oc(=O)c(Cc2ccccc2N(C(=O)OCc2ccccc2)S(=O)(=O)C(F)(F)F)c1C (single isomer, unassigned) [1-788 (TLC top)] | 50%
Cc1c(Cc2ccccc2NS(=O)(=O)C(F)(F)F)c(=O)on1C(C)c1cccc(Cl)c1 (stereo not shown) [Compound 1-206] | 100%
CC(C)c1c(Cc2ccccc2N(S(=O)(=O)C(F)(F)F)S(=O)(=O)C(F)(F)F)c(=O)on1C(C)C [Compound 1-69] | 70%
Cc1c(Cc2ccccc2N(S(=O)(=O)C(F)(F)F)S(=O)(=O)C(F)(F)F)c(=O)on1Cc1cccc(C(F)(F)F)c1 [Compound 1-1020] | 40%
Cc1c(Cc2ccccc2NS(=O)(=O)C(F)(F)F)c(=O)on1C(C)c1ccsc1 (stereo not shown) [Compound 1-235] | 80%
CSCCCn1oc(=O)c(Cc2ccccc2NS(=O)(=O)C(F)(F)F)c1C [Compound 1-167] | 80%
